Columns and labels:
Assay type in all cases: cell-based
[1] = target: T1, Kir7.1 (hKir7.1) (Homo sapiens, UniProt O60928); assay: whole-cell patch clamp, inhibition of P4-activated current; design: gene KCNJ13; recombinant hKir7.1 in HEK293 cells
T1 sequence (O60928 1-360): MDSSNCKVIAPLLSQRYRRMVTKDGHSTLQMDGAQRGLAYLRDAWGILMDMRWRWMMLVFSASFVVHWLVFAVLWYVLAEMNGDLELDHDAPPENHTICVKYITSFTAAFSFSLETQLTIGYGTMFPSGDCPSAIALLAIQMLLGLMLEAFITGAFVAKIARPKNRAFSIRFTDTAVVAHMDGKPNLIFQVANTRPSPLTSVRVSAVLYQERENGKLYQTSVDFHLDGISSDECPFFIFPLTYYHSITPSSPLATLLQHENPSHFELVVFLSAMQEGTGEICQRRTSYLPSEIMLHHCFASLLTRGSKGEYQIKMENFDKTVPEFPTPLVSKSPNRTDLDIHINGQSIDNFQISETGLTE

[2] = target: T2, murine Kir7.1 (Mus musculus, UniProt P86046); assay: whole-cell patch clamp, dose response of current potentiation
T2 construct: gene Kcnj13; recombinant murine Kir7.1 in HEK293 cells
T2 sequence (P86046 1-360): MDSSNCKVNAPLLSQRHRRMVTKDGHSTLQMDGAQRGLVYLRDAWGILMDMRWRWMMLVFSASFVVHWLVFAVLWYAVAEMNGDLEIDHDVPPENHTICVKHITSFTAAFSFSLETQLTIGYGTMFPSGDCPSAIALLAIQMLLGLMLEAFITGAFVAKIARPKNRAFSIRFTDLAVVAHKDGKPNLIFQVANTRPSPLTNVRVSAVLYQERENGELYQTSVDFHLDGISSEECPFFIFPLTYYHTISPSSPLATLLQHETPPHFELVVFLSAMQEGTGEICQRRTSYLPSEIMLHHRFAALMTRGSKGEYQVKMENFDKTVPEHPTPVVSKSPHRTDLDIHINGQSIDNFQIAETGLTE

[3] = target: T1, Kir7.1 (hKir7.1); assay: whole-cell patch clamp, dose response of current potentiation at -80 mV; design: gene KCNJ13; recombinant hKir7.1 (pIRES2-eGFP-hKir7.1) in HEK293 cells and HUtSMCs

Row | SMILES | IC50 [1] [µM] | EC50 [2] | EC50 [3]
1 | C[C@]12CC[C@@H]3c4ccc(O)cc4CC[C@H]3[C@@H]1CC[C@@H]2O [E2, 17β-estradiol] | 8.6 | – | –
2 | CC(=O)[C@H]1CC[C@H]2[C@@H]3CCC4=CC(=O)CC[C@]4(C)[C@H]3CC[C@]12C [P4, progesterone] | – | ~ 9.4 and 11.5 μM | ~ 9.4 and 11.5 μM

Source: paper PMC11881918, “Kir7.1 is the physiological target for hormones and steroids that regulate uteroplacental function” (Science Advances, 2025)
